Source: patent US9309224B2 (Deciphera Pharmaceuticals, LLC, priority 2013, dated 2016)

Assays:
[1] = biological target: T1, unphosphorylated PDGFRβ kinase (uPDGFRβ, Seq. ID No. 3) (Homo sapiens, UniProt P09619); test: Unphosphorylated PDGFRβ kinase assay (pyruvate kinase/lactate dehydrogenase coupled); assay type: biochemical; settings: ATP 500 μM
T1 construct: purchased DeCode
Description: Unphosyhorylated PDGFRβ (uPDGFRβkinase (Seq. ID No. 3) assay

[2] = biological target: T2, phospho-FMS in THP-1 cells (Homo sapiens, UniProt P07333); test: Phospho-FMS ELISA assay in THP-1 cells; assay type: cell-based; settings: 4 hours compound, M-CSF stimulated; read-out: pFMS inhibition in THP-1 cells
T2 construct: endogenous in cells; host or cells: THP-1 (ATCC TIB-202)
Experimental: In a separate 96 well black clear bottom plate, one hundred and fifty thousand THP-1 cells were added per well in 100 μL in assay medium. Fifty microliters of diluted compound was then added to the cells. […] Lysates were prepared and used to perform the phospho-FMS ELISA as described by the manufacturer (catalog #DYC3268, R & D Systems, Minneapolis, Minn.). GraphPad Prism was used to calculate IC50 values obtained from data generated from the ELISA assay.

[3] = biological target: T3, unphosphorylated c-KIT kinase (uKIT, Seq. ID no. 2) (Homo sapiens, UniProt P10721); test: uKit kinase assay (pyruvate kinase/lactate dehydrogenase coupled); assay type: biochemical; settings: ATP 2000 μM
T3 construct: uKit with N-terminal GST fusion used for
Experimental: In this assay, the oxidation of NADH (thus the decrease at A340 nm) was continuously monitored spectrophometrically. […] The inhibition reaction was started by mixing serial diluted test compound with the above reaction mixture. The absorption at 340 nm was monitored continuously for 4 hours at 30° C. on Synergy 2 plate reader (BioTech).

osteoclast precursors = test: Osteoclast tartrate-resistant acid phosphatase assay; assay type: cell-based; settings: Osteoclast; 7-14 days, RANKL and M-CSF
[4] = biological target: T4, unphosphorylated c-FMS kinase (uFMS, Seq. ID no. 1) (Homo sapiens, UniProt P07333); test: uFMS kinase assay (pyruvate kinase/lactate dehydrogenase coupled); assay type: biochemical; settings: ATP 500 μM
T4 construct: purchased Millipore
T4 sequence (P07333 538-972): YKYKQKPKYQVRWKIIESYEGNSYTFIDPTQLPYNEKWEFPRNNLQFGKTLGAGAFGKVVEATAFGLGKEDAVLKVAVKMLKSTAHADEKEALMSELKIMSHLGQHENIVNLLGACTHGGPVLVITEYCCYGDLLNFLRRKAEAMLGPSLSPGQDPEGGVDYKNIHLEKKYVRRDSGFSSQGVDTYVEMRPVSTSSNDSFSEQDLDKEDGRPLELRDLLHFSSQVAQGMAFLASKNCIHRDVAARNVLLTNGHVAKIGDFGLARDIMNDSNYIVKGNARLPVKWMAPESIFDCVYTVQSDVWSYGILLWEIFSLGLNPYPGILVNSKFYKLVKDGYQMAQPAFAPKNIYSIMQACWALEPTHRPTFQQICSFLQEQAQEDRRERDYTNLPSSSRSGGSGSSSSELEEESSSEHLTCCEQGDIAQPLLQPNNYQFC
Experimental: In this assay, the oxidation of NADH (thus the decrease at A340 nm) was continuously monitored spectrophometrically. The reaction mixture (100 μL) contained FMS (purchased from Millipore) (10 nM), polyE4Y (1 mg/mL), MgCl2 (10 mM), pyruvate kinase (4 units), lactate dehydrogenase (0.7 units), phosphoenol pyruvate (1 mM), NADH (0.28 mM) and ATP (500 μM) in 90 mM Tris buffer containing 0.2% octyl-glucoside and 1% DMSO, pH 7.5. The inhibition reaction was started by mixing serial diluted test compound with the above reaction mixture. The absorption at 340 nm was monitored continuously for 4 hours at 30° C. on Synergy 2 plate reader. The reaction rate was calculated using the 3 to 4 h time frame. Percent inhibition was obtained by comparison of reaction rate with that of a control (i.e. in the absence of test compound). IC50 values were calculated from a series of percent inhibition values determined at a range of inhibitor concentrations using software routines as implemented in the GraphPad Prism software package.

M-NFS-60 cells = test: M-NFS-60 cell proliferation assay; assay type: cell-based; settings: 67 h incubation, resazurin
Experimental: M-NFS-60 Cell Proliferation Assay A serial dilution of test compound was dispensed into a 384-well black clear bottom plate (Corning, Corning, N.Y.). Two thousand five hundred cells were added per well in 50 μL complete growth medium. […] IC50 values were calculated from a series of percent inhibition values determined at a range of inhibitor concentrations using software routines as implemented in the GraphPad Prism software package.

c-FMS = test: cFOS mRNA production in a c-FMS mouse spleen pharmacodynamic model; assay type: in vivo; settings: out to 8 h post 30 mg/kg single oral dose, read-out: inhibition of cFOS mRNA levels
Experimental: Analysis of cFOS mRNA Production in a c-FMS Mouse Spleen Pharmacodynamic Model To examine the in vivo modulation of FMS activity by compounds of formula I, spleen samples from female DBA/1 mice were collected and analyzed for M-CSF stimulated production of cFOS mRNA. Briefly, six to seven week old female Taconic DBA/1BO J Bom Tac mice were treated with a single oral dose (by gavage) of either vehicle or compound. Plasma and spleen samples are collected from four mice at each timepoint 2, 4, 6, 8, 12, 18, and 24 hours after dosing. Fifteen minutes prior to euthanasia, all mice were injected IV with 1 μg (100 μL fixed volume) of M-CSF. M-CSF, Recombinant Mouse Macrophage Colony Stimulating Factor (36.4 kDa homodimer, ≧98% purity) was obtained from Gibco. All procedures carried out in this experiment were conducted in compliance with all the laws, regulations and guidelines of the National Institutes of Health (NIH). cFOS mRNA levels in spleen extracts were determined using a quantitative reverse transcriptase PCR kit from Life Technologies. Plasma levels of FMS inhibitors were determined by mass spectrometer analysis. The degree of FMS inhibition was correlative to the amount of decrease observed in cFOS mRNA levels in the spleen samples of treated animals compared to vehicle.

[5] = test system: U251-luc human glioma carcinoma; test: U251 intra-cerebro-ventricular implant in mice with fractionated head radiation; assay type: in vivo, mouse; settings: 30 mg/kg twice daily, 10 days post irradiation, compared to vehicle treated control
Experimental: U251 Intra-Cerebro-Ventricular Implant in Mice To evaluate in vivo anti-cancer activity compounds of formula I in combination with fractionated, localized head radiation, an orthotopic U251-luc (Luc) human glioma carcinoma model in female outbred nu/nu mice was employed. Briefly, U251 cells were obtained from the ATCC and altered to be luciferase expressing. They were grown in RPMI 1640 Media supplemented with 10% FBS and 1% PSG. The growth environment was maintained in an incubator with a 5% CO2 atmosphere at 37° C. Female Harlan Nude mice (Hsd:AthymicNude-Fox1nu) 8-9 weeks old were used in this study. Test animals were implanted intracranially with U251-luc (LucmCherry) cells. Briefly, animals were injected subcutaneously with 5 mg/kg carprofen and anesthetized using 2% isoflurane in air. The animals were then secured in a stereotaxic frame (ASIinstruments, Inc.) and a hole drilled 2 mm right lateral, 1 mm anterior to the coronal suture. The cell suspension (stored on wet ice) was mixed thoroughly and drawn up into a 50 μL syringe. The syringe needle was centered over the burr hole and lowered 3 mm into the brain and retracted 1 mm to form a “reservoir” for the deposition of the cell suspension. […] Images were analyzed using Living Image (Xenogen, Alameda, Calif.) software. The BLI signal in the brain was calculated with a fixed area ROI to estimate the tumor burden. […]

T2 sequence (P07333 20-972): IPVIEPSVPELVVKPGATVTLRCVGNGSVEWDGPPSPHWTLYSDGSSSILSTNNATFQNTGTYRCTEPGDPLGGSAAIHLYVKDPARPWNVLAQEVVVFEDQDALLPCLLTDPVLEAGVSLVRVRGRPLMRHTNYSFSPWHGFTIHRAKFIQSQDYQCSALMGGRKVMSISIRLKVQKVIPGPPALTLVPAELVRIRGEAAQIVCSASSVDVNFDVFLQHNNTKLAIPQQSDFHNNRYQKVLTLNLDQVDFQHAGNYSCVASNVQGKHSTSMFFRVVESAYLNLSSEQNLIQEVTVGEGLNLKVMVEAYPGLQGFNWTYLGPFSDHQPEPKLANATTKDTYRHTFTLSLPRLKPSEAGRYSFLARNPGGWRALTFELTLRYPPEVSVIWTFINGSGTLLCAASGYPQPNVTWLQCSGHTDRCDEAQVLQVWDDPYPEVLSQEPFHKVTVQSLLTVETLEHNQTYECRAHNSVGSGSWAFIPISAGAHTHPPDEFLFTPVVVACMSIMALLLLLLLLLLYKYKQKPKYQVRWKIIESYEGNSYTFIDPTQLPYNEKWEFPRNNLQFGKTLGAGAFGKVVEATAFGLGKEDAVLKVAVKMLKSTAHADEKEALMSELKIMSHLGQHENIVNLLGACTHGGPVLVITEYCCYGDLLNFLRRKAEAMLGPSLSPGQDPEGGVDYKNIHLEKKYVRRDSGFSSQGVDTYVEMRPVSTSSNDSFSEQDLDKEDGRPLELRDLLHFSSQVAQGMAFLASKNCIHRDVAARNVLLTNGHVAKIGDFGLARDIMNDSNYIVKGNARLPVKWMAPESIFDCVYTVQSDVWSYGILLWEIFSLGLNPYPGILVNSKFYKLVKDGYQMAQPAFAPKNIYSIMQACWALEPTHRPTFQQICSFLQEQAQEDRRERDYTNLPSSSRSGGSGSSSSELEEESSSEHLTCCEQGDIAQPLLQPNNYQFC
T3 sequence (P10721 with tags, fused parts or gaps): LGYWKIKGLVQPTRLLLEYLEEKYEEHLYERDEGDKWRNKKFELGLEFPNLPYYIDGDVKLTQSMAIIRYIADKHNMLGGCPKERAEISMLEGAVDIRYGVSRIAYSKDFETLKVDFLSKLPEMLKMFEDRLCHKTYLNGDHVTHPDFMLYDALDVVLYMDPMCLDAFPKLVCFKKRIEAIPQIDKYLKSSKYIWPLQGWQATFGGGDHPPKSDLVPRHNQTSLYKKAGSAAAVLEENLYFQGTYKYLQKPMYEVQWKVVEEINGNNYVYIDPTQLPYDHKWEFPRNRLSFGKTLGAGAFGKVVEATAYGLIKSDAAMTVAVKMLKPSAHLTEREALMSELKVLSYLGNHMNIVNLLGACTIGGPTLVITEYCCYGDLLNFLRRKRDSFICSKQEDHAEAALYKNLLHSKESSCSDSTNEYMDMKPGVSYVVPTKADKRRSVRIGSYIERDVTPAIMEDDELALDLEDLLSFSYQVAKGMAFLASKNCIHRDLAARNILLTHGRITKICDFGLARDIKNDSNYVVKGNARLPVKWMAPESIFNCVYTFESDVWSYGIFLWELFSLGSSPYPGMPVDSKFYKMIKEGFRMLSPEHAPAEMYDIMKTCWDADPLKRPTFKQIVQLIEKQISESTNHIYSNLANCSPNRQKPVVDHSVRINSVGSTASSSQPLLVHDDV
T1 sequence (P09619 557-1105): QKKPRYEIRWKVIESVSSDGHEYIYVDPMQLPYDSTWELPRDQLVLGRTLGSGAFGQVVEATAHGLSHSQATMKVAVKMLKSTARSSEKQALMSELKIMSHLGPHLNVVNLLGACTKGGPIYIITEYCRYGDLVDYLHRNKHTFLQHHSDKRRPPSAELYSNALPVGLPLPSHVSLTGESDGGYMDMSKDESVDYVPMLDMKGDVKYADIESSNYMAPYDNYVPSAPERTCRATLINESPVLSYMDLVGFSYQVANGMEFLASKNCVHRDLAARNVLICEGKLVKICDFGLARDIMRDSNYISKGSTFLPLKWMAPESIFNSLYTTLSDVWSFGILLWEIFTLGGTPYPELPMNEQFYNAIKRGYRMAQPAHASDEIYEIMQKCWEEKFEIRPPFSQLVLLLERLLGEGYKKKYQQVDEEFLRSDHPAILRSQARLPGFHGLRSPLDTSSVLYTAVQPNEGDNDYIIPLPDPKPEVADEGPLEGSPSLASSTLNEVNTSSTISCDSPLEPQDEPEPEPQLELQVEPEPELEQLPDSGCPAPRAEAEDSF

`CN1CCN(C(=O)Nc2cc(Oc3ccc(NC(=O)NC(=O)C(C)(C)C)nc3)ccn2)CC1` [Example 45, 4-methyl-N-(4-((6-(3-pivaloylureido)pyridin-3-yl)oxy)pyridin-2-yl)piperazine-1-carboxamide] showed an IC50 [1] of 100 to 1000 nM, an IC50 [2] of under 10 nM and an IC50 [3] of 100 to 1000 nM. The IC50 (osteoclast precursors) was under 10 nM, the IC50 [4] was under 10 nM and the IC50 (M-NFS-60 cells) was under 10 nM. The inhibition in vivo at 30 mg/kg (c-FMS) was at least 50% and the “reduction in tumor re-growth” value [5] was 80%.
